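Assay format: 96-well plates, 48-hour exposure. Abbreviation: GI50, concentration required for 50% inhibition of growth.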 Calls of active or inactive are those of the source. Cut-off read from the data, not from the text of the source: active = GI50 up to about 1.1 µM and inactive = higher.
How the values were obtained:
Assay in all cases: NCI anticancer screen, dose series, 48 h
BT-549 = system: BT-549
NCI-H460 = system: NCI-H460
HCT-15 = system: HCT-15
M14 = system: M14
HL-60 = system: HL-60
MDA-N = system: MDA-N
SR = system: SR
UACC-257 = system: UACC-257
UO-31 = system: UO-31
Malme-3M = system: Malme-3M
EKVX = system: EKVX
OVCAR-8 = system: OVCAR-8
OVCAR-5 = system: OVCAR-5
SF-295 = system: SF-295
OVCAR-3 = system: OVCAR-3
786-0 = system: 786-0
NCI/ADR-RES = system: NCI/ADR-RES
NCI-H23 = system: NCI-H23
MOLT-4 = system: MOLT-4
A498 = system: A498
IGROV-1 = system: IGROV-1
NCI-H226 = system: NCI-H226
SNB-19 = system: SNB-19
COLO 205 = system: COLO 205
LOX IMVI = system: LOX IMVI
MDA-MB-231 = system: MDA-MB-231
OVCAR-4 = system: OVCAR-4
U-251 = system: U-251
SK-MEL-5 = system: SK-MEL-5
A549 = system: A549
K562 = system: K562
SN12C = system: SN12C
HCC 2998 = system: HCC 2998
CAKI-1 = system: CAKI-1
DU-145 = system: DU-145
SF-539 = system: SF-539
RXF 393 = system: RXF 393
HT-29 = system: HT-29
CCRF-CEM = system: CCRF-CEM
SNB-75 = system: SNB-75
HCT-116 = system: HCT-116
SW-620 = system: SW-620
Hs-578T = system: Hs-578T
SK-MEL-28 = system: SK-MEL-28
HOP-92 = system: HOP-92
SF-268 = system: SF-268
MCF7 = system: MCF7
MDA-MB-435 = system: MDA-MB-435
ACHN = system: ACHN
SK-MEL-2 = system: SK-MEL-2
NCI-H522 = system: NCI-H522
KM12 = system: KM12
RPMI-8226 = system: RPMI-8226
HOP-62 = system: HOP-62
TK-10 = system: TK-10
PC-3 = system: PC-3
T47D = system: T47D
SK-OV-3 = system: SK-OV-3
UACC-62 = system: UACC-62

In the case of C=CC(C)(C)n1cc(C2=C3OC(=O)C(c4cn(C(C)(C)C=C)c5ccccc45)=C3OC2=O)c2ccccc21, the GI50 (BT-549) is reported as > 100 µM (inactive), the GI50 (NCI-H460) is reported as > 100 µM (inactive) and the GI50 (HCT-15) is reported as over 100 µM. The GI50 (M14) was > 100 µM (inactive), the GI50 (HL-60) was > 100 µM (inactive) and the GI50 (MDA-N) was > 100 µM (inactive). The GI50 (SR) was > 100 µM (inactive), the GI50 (UACC-257) was > 100 µM (inactive) and the GI50 (UO-31) was > 100 µM (inactive). For the same molecule, the GI50 (Malme-3M) was > 100 µM (inactive), the GI50 (EKVX) was > 100 µM (inactive) and the GI50 (OVCAR-8) was > 100 µM (inactive). For the same molecule, the GI50 (OVCAR-5) was > 100 µM (inactive), the GI50 (SF-295) was > 100 µM (inactive) and the GI50 (OVCAR-3) was > 100 µM (inactive). For the same molecule, the GI50 (786-0) was > 100 µM (inactive), the GI50 (NCI/ADR-RES) was > 100 µM (inactive) and the GI50 (NCI-H23) was > 100 µM (inactive). The GI50 (MOLT-4) was > 100 µM (inactive), the GI50 (A498) was > 100 µM (inactive) and the GI50 (IGROV-1) was > 100 µM (inactive). The GI50 (NCI-H226) was > 100 µM (inactive), the GI50 (SNB-19) was > 100 µM (inactive) and the GI50 (COLO 205) was > 100 µM (inactive). The GI50 (LOX IMVI) was > 100 µM (inactive), the GI50 (MDA-MB-231) was > 100 µM (inactive) and the GI50 (OVCAR-4) was > 100 µM (inactive). For the same molecule, the GI50 (U-251) was > 100 µM (inactive), the GI50 (SK-MEL-5) was > 100 µM (inactive) and the GI50 (A549) was > 100 µM (inactive). For the same molecule, the GI50 (K562) was > 100 µM (inactive), the GI50 (SN12C) was > 100 µM (inactive) and the GI50 (HCC 2998) was > 100 µM (inactive). For the same molecule, the GI50 (CAKI-1) was > 100 µM (inactive), the GI50 (DU-145) was > 100 µM (inactive) and the GI50 (SF-539) was > 100 µM (inactive). The GI50 (RXF 393) was > 100 µM (inactive), the GI50 (HT-29) was > 100 µM (inactive) and the GI50 (CCRF-CEM) was > 100 µM (inactive). For the same molecule, the GI50 (SNB-75) was > 100 µM (inactive), the GI50 (HCT-116) was > 100 µM (inactive) and the GI50 (SW-620) was > 100 µM (inactive). For the same molecule, the GI50 (Hs-578T) was > 10 µM (inactive), the GI50 (SK-MEL-28) was > 100 µM (inactive) and the GI50 (HOP-92) was > 100 µM (inactive). The GI50 (SF-268) was > 100 µM (inactive), the GI50 (MCF7) was > 100 µM (inactive) and the GI50 (MDA-MB-435) was > 100 µM (inactive). For the same molecule, the GI50 (ACHN) was > 100 µM (inactive), the GI50 (SK-MEL-2) was > 100 µM (inactive) and the GI50 (NCI-H522) was > 100 µM (inactive). The GI50 (KM12) was > 100 µM (inactive), the GI50 (RPMI-8226) was > 100 µM (inactive) and the GI50 (HOP-62) was > 100 µM (inactive). The GI50 (TK-10) was > 100 µM (inactive) and the GI50 (PC-3) was > 100 µM (inactive).

With CCOC(=O)c1cc(-c2ccc(Cl)cc2)c([N+](=O)[O-])n1C the GI50 (BT-549) was > 10 µM (inactive), the GI50 (NCI-H460) was > 10 µM (inactive) and the GI50 (HCT-15) was over 10 µM. The GI50 (M14) was > 10 µM (inactive), the GI50 (HL-60) was > 10 µM (inactive) and the GI50 (MDA-N) was > 10 µM (inactive). The GI50 (SR) was 5.08 µM (inactive), the GI50 (UACC-257) was > 10 µM (inactive) and the GI50 (UO-31) was 5.48 µM (inactive). The GI50 (Malme-3M) was > 10 µM (inactive), the GI50 (EKVX) was > 10 µM (inactive) and the GI50 (OVCAR-8) was > 10 µM (inactive). The GI50 (OVCAR-5) was > 10 µM (inactive), the GI50 (SF-295) was > 10 µM (inactive) and the GI50 (OVCAR-3) was > 10 µM (inactive). For the same molecule, the GI50 (786-0) was > 10 µM (inactive), the GI50 (NCI-H23) was > 10 µM (inactive) and the GI50 (MOLT-4) was > 10 µM (inactive). The GI50 (IGROV-1) was > 10 µM (inactive), the GI50 (NCI-H226) was > 10 µM (inactive) and the GI50 (SNB-19) was > 10 µM (inactive). For the same molecule, the GI50 (MDA-MB-231) was 0.08 µM (active), the GI50 (OVCAR-4) was > 10 µM (inactive) and the GI50 (U-251) was > 10 µM (inactive). The GI50 (A549) was > 10 µM (inactive), the GI50 (K562) was > 10 µM (inactive) and the GI50 (SN12C) was > 10 µM (inactive). For the same molecule, the GI50 (HCC 2998) was > 10 µM (inactive), the GI50 (T47D) was 2.05 µM (inactive) and the GI50 (DU-145) was > 10 µM (inactive). For the same molecule, the GI50 (SF-539) was > 10 µM (inactive), the GI50 (HT-29) was > 10 µM (inactive) and the GI50 (CCRF-CEM) was > 10 µM (inactive). For the same molecule, the GI50 (HCT-116) was > 10 µM (inactive), the GI50 (Hs-578T) was > 10 µM (inactive) and the GI50 (HOP-92) was > 10 µM (inactive). For the same molecule, the GI50 (SF-268) was > 10 µM (inactive), the GI50 (MDA-MB-435) was > 10 µM (inactive) and the GI50 (ACHN) was > 10 µM (inactive). The GI50 (SK-MEL-2) was > 10 µM (inactive), the GI50 (NCI-H522) was > 10 µM (inactive) and the GI50 (KM12) was > 10 µM (inactive). For the same molecule, the GI50 (TK-10) was > 10 µM (inactive) and the GI50 (SK-OV-3) was > 10 µM (inactive).

In the case of C=CCCCC1CCCNC1=O (configuration not stated), the GI50 (BT-549) is reported as > 100 µM (inactive), the GI50 (NCI-H460) is reported as 42.6 µM (inactive) and the GI50 (HCT-15) is reported as 19 µM. For the same molecule, the GI50 (M14) was > 100 µM (inactive), the GI50 (MDA-N) was 58.5 µM (inactive) and the GI50 (UACC-257) was > 100 µM (inactive). The GI50 (UO-31) was > 100 µM (inactive), the GI50 (UACC-62) was > 100 µM (inactive) and the GI50 (EKVX) was > 100 µM (inactive). For the same molecule, the GI50 (OVCAR-8) was > 100 µM (inactive), the GI50 (OVCAR-5) was > 100 µM (inactive) and the GI50 (SF-295) was > 100 µM (inactive). The GI50 (OVCAR-3) was > 100 µM (inactive), the GI50 (786-0) was > 100 µM (inactive) and the GI50 (NCI-H23) was > 100 µM (inactive). For the same molecule, the GI50 (MOLT-4) was > 100 µM (inactive), the GI50 (A498) was > 100 µM (inactive) and the GI50 (IGROV-1) was > 100 µM (inactive). For the same molecule, the GI50 (NCI-H226) was > 100 µM (inactive), the GI50 (SNB-19) was > 100 µM (inactive) and the GI50 (MDA-MB-231) was > 100 µM (inactive). The GI50 (OVCAR-4) was > 100 µM (inactive), the GI50 (U-251) was > 100 µM (inactive) and the GI50 (SK-MEL-5) was > 100 µM (inactive). The GI50 (A549) was > 100 µM (inactive), the GI50 (K562) was > 100 µM (inactive) and the GI50 (SN12C) was > 100 µM (inactive). The GI50 (HCC 2998) was > 100 µM (inactive), the GI50 (T47D) was > 100 µM (inactive) and the GI50 (CAKI-1) was > 100 µM (inactive). For the same molecule, the GI50 (DU-145) was > 100 µM (inactive), the GI50 (SF-539) was > 100 µM (inactive) and the GI50 (RXF 393) was > 100 µM (inactive). For the same molecule, the GI50 (HT-29) was > 100 µM (inactive), the GI50 (SNB-75) was > 100 µM (inactive) and the GI50 (HCT-116) was > 100 µM (inactive). For the same molecule, the GI50 (SW-620) was > 100 µM (inactive), the GI50 (Hs-578T) was > 100 µM (inactive) and the GI50 (SK-MEL-28) was > 100 µM (inactive). The GI50 (HOP-92) was > 100 µM (inactive), the GI50 (SF-268) was > 100 µM (inactive) and the GI50 (MCF7) was > 100 µM (inactive). The GI50 (MDA-MB-435) was > 100 µM (inactive), the GI50 (ACHN) was > 100 µM (inactive) and the GI50 (SK-MEL-2) was > 100 µM (inactive). The GI50 (NCI-H522) was > 100 µM (inactive), the GI50 (KM12) was > 100 µM (inactive) and the GI50 (RPMI-8226) was > 100 µM (inactive). For the same molecule, the GI50 (HOP-62) was > 100 µM (inactive), the GI50 (TK-10) was > 100 µM (inactive) and the GI50 (SK-OV-3) was > 100 µM (inactive). The GI50 (PC-3) was > 100 µM (inactive).
